Where a name gives a salt, the structure may show the parent alone. Read-outs that look alike come from different tables or passages of the source.
Format: physicochemical
Conditions: sodium salt; for Stability of the polymorphic form (in words): storage, ambient condition (temperature and humidity) or closed cap

Row | Time after which the form converts to Pattern C (closed cap storage) | Stability of the polymorphic form (in words) | Time after which the form converts to Pattern C (ambient condition) | SMILES | further results
1 |  |  | to Pattern C after 2 weeks at ambient | Cc1c(-c2ccc(-c3ccccc3F)cc2)nc2ccc(F)cc2c1C(=O)O [Pattern G, brequinar sodium salt] | 
2 |  | unstable | 2 days | Cc1c(-c2ccc(-c3ccccc3F)cc2)nc2ccc(F)cc2c1C(=O)O [Pattern I, brequinar sodium salt] | 
3 |  | unstable | to Pattern C after 3 days at ambient | Cc1c(-c2ccc(-c3ccccc3F)cc2)nc2ccc(F)cc2c1C(=O)O [Pattern D, brequinar sodium salt] | 

Second part, the molecule before the results:

Row | SMILES | Time after which the form converts to Pattern C (closed cap storage) | Stability of the polymorphic form (in words) | Time after which the form converts to Pattern C (ambient condition) | further results
4 | Cc1c(-c2ccc(-c3ccccc3F)cc2)nc2ccc(F)cc2c1C(=O)O [Pattern C, 6-Flouro-2-(2′-fluoro-1,1′-biphenyl-4-yl)-3-methyl-4-quinolinecarboxylic acid sodium salt] |  |  |  | Stability of the polymorphic form (in words) (listed as polymorphic form C): stable
5 | Cc1c(-c2ccc(-c3ccccc3F)cc2)nc2ccc(F)cc2c1C(=O)O [Pattern F, brequinar sodium salt] | Pattern C after 1 week (closed cap weeks |  |  | 
6 | Cc1c(-c2ccc(-c3ccccc3F)cc2)nc2ccc(F)cc2c1C(=O)O [Pattern J, brequinar sodium salt] | 2 weeks |  |  | 
7 | Cc1c(-c2ccc(-c3ccccc3F)cc2)nc2ccc(F)cc2c1C(=O)O [Pattern A, brequinar sodium salt] |  | metastable |  | 
8 | Cc1c(-c2ccc(-c3ccccc3F)cc2)nc2ccc(F)cc2c1C(=O)O [Pattern E, brequinar sodium salt] | Pattern C after 1 week (closed cap weeks |  |  | 
9 | Cc1c(-c2ccc(-c3ccccc3F)cc2)nc2ccc(F)cc2c1C(=O)O [Pattern B, brequinar sodium salt] |  |  | Pattern C after 4 days at ambient | 

Reference: US20210300873A1 (Clear Creek Bio, Inc., priority 2020, published 2021)
